Columns and labels:
Assay type in all cases: in vivo
Veronica [1] = test: Activity assay of compositions, post-emergence spray of stems and leaves; details: 21 days
Experimental: The required active ingredient B was purchased from a reagent company or a technical material manufacturer or synthesized by a conventional method. […] The technical materials were all dissolved with acetone solvents and diluted with aqueous solution of 0.1% Tween® 80 emulsifier, which should be used immediately after dilution.
(§1) Weeds were cultivated by a pot culture method. […] Weed seeds with plump and uniform grains were selected, soaked in lukewarm water at 25° C. for 6 hours, and accelerated to germinate in a 28° C. biochemical incubator (in darkness). The weed seeds that had just germinated were evenly placed on the surface of the soil and then covered with 0.5-1 cm soil according to the sizes of seeds.
(§2) Each treatment was repeated 4 times for 3 pots. Each pot was seeded with 20 weed seeds.
(§3) The drugs were applied once in total in the experiment. When at the stage of 1.5-2 leaves, the weeds were thinned out to maintain 10 strains per pot. Thirty strains were kept in each treatment and then continued to be cultured until the Erigeron canadensis reached 10 cm tall and other weeds in their 3-4 leaf stage for further treatment.
(§4) The well-cultured test materials were evenly placed on a 0.5 m^2 platform and foliage-sprayed by the 3WP-2000-type walking spray tower at a dosage of […] and a spray pressure of 0.3 MPa. After all the drug solution was sprayed, the air valve was closed. And 30 seconds later, the door of the spray tower was opened, and the nutritional bowl was taken out. Next, the air valve was opened, and the spray tube was cleaned by spraying 50 ml of water. The test materials were transferred to and routinely cultured in a greenhouse after the treatment.
(§5) A method for investigating absolute numbers was employed. The whole seedlings of the survival weeds were cut along the soil surface with a blade, and the fresh weight of the weeds was weighed by an analytical balance. For dead weeds, the fresh weight thereof was considered zero.
(§6) The investigation was performed 21 days after the treatment for once in total.
The theoretical fresh weight inhibition rate of a mixed combination of each treatment was calculated by the Gowing method (E0=X+Y−X*Y/100). […] An optimal ratio was determined according to factors such as the actual control effects, characteristics of herbicides, balance of the formulation, etc. In the formula, X represents the fresh weight inhibition rate of the active ingredient A in a dosage of P; Y represents the fresh weight inhibition rate of the active ingredient B in a dosage of Q. The statistical results are shown in Table 5 below.

Euphorbia helioscopia = test: as above; details: 21 days
Excerpt: The required active ingredient B was purchased from a reagent company or a technical material manufacturer or synthesized by a conventional method. The active ingredient A was Compound 74 in Table 1. The technical materials were all dissolved with acetone solvents and diluted with aqueous solution of 0.1% Tween® 80 emulsifier, which should be used immediately after dilution.
as §1
The weeds were cultured in a controllable sunlight greenhouse at 20-30° C., in natural light, and with relative humidity of 57%-72%. The soil was loam with an organic matter content of 1.63%, a pH value of 7.1, alkali-hydrolyzable nitrogen of 84.3 mg/kg, rapidly available phosphorus of 38.5 mg/kg, and rapidly available potassium of 82.1 mg/kg.
as §2, §3, §4, §5, §6
The theoretical fresh weight inhibition rate of a mixed combination of each treatment was calculated by the Gowing method (E0=X+Y−X*Y/100). Then compared with the measured inhibition rate (E), the type of the combined action of the combination of the two on weeds was evaluated, which was a synergistic effect when E−E0>10; an antagonistic effect when E−E0<−10%; an additional effect when −10≤E−E0≤[…]. An optimal ratio was determined according to factors such as the actual control effects, characteristics of herbicides, balance of the formulation, etc. In the formula, X represents the fresh weight inhibition rate of the active ingredient A in a dosage of P; Y represents the fresh weight inhibition rate of the active ingredient B in a dosage of Q. The statistical results are shown in Table 5 below.

Veronica [2] = test: Post-emergence test on weeds; design: key: 0 = no effect, 9 = completely dead (levels by growth control rate); details: 30 g a.i./ha, 3 weeks after application
Excerpt: The criteria for activity levels of plant damage (i.e., growth control rate) are as follows: • Level 9: completely dead; • Level 8: growth control rate is greater than or equal to 90% and less than 100%; • Level 7: growth control rate is greater than or equal to 80% and less than 90%; • Level 6: growth control rate is greater than or equal to 70% and less than 80%; • Level 5: growth control rate is greater than or equal to 50% and less than 70%; • Level 4: growth control rate is greater than or equal to 30% and less than 50%; • Level 3: growth control rate is greater than or equal to 20% and less than 30%; • Level 2: growth control rate is greater than or equal to 10% and less than 20%; • Level 1: growth control rate is less than 10%; • Level 0: no effect.
The above growth control rates are fresh weight control rates.
Monocotyledonous and dicotyledonous weed seeds (Descurainia sophia, Capsella bursa-pastoris, Abutilon theophrasti, Galium spurium, Stellaria media, Lithospermum arvense, Rorippa indica, Alopecurus aequalis, Alopecurus japonicus, Eleusine indica, Beckmannia syzigachne, Sclerochloa dura, Erigeron canadensis, Phleum paniculatum, Veronica, Bromus japonicus, Aegilops tauschii, Phalaris arundinacea, Amaranthus retroflexus, Chenopodium, Commelina communis, Cichorium endivia, Convolvulus arvensis, Cirsium arvense, Solanum nigrum, Acalypha australis, Digitaria sanguinalis, Echinochloa crusgalli, Setaria viridis, Setaria pumila, Leptochloa chinensis, Monochoria vaginalis, Sagittaria trifolia, Schoenoplectiella juncoides, Cyperus rotundus, Cyperus iria, Cyperus difformis, Fimbristylis, Portulaca oleracea, Xanthium sibiricum, Ipomoea nil, Eschenbachia japonica, etc.) and major crop seeds (wheat, maize, paddy rice, soybean, cotton, oilseed rape, millet, sorghum, potato, sesame, castor plant, Chinese cabbage, radish, etc.) were placed in plastic pots filled with soil and then covered with 0.5-2 cm of soil to allow them to grow in a favorable greenhouse environment. Two weeks after sowing, the test plants were treated at the stage of 2-3 leaves. The test compounds of the present invention were individually dissolved with acetone, then added with Tween® 80, with 1.5 L/ha of methyl oleate emulsifiable concentrate as a synergist, diluted into solution of a certain concentration using a certain amount of water, and sprayed to plants using a spray tower. After drug application, the experimental results on weeds were collected after 3 weeks of cultivation in a greenhouse. The compounds were applied at 120, 60, 30, and 15 g a.i./ha in triplicate, and the results were averaged.

SMILES | activity level of plant damage (growth control rate), Veronica (Veronica [2]) | further results
Cc1cc(Cl)ccc1OCC(=O)OCCCCCC(C)C [MCPA-isooctyl] |  | Control effect of B applied alone in a corresponding dose (%) (Veronica [1]; B 150 g a.i./ha): 23.5%; Control effect of B applied alone in a corresponding dose (%) (Veronica [1]; B 300 g a.i./ha): 40.8%
COc1ncc(F)c2nc(S(=O)(=O)Nc3c(F)cccc3F)nn12 [Florasulam, florasulam] |  | Control effect of B applied alone in a corresponding dose (%) (Veronica [1]; B 3 g a.i./ha): 15.7%; Control effect of B applied alone in a corresponding dose (%) (Veronica [1]; B 6 g a.i./ha): 28.1%
Nc1c(Cl)c(Cl)nc(C(=O)O)c1Cl [Picloram, picloram] |  | Control effect of B applied alone in a corresponding dose (%) (Veronica [1]; B 15 g a.i./ha): 15.7%; Control effect of B applied alone in a corresponding dose (%) (Veronica [1]; B 30 g a.i./ha): 30.8%
Cc1cc(C)n(Cc2c(S(C)(=O)=O)ccc(C(=O)c3c(C)nn(C)c3OC(=O)c3cn(C)nc3C)c2Cl)n1 [Tripyrasulfone, tripyrasulfone] |  | Control effect of B applied alone in a corresponding dose (%) (Euphorbia helioscopia; B 15 g a.i./ha): 20.0%; Control effect of B applied alone in a corresponding dose (%) (Euphorbia helioscopia; B 30 g a.i./ha): 36.9%
COc1c(Cl)ccc(-c2nc(C(=O)OCc3ccccc3)c(Cl)c(N)c2F)c1F [Florpyrauxifenbenzyl, florpyrauxifen-benzyl] |  | Control effect of B applied alone in a corresponding dose (%) (Veronica [1]; B 3 g a.i./ha): 20.1%; Control effect of B applied alone in a corresponding dose (%) (Veronica [1]; B 6 g a.i./ha): 45.8%
CCOC(=O)Cn1c(=O)sc2cccc(Cl)c21 [Benazolinethyl, benazolin-ethyl] |  | Control effect of B applied alone in a corresponding dose (%) (Veronica [1]; B 75 g a.i./ha): 24.0%; Control effect of B applied alone in a corresponding dose (%) (Veronica [1]; B 150 g a.i./ha): 35.2%
CCCCCCC(C)OC(=O)COc1nc(F)c(Cl)c(N)c1Cl (stereo not shown) [Fluroxypyrmeptyl, fluroxypyr-meptyl] |  | Control effect of B applied alone in a corresponding dose (%) (Veronica [1]; B 60 g a.i./ha): 20.3%; Control effect of B applied alone in a corresponding dose (%) (Veronica [1]; B 120 g a.i./ha): 40.6%
COC(=O)c1nc(-c2ccc(Cl)c(OC)c2F)cc(N)c1Cl [Halauxifenmethyl, halauxifen-methyl] |  | Control effect of B applied alone in a corresponding dose (%) (Veronica [1]; B 1.5 g a.i./ha): 22.8%; Control effect of B applied alone in a corresponding dose (%) (Veronica [1]; B 3 g a.i./ha): 43.1%
CCOC(=O)c1nc(-c2ccc(Br)c(OC)c2F)nc(N)c1OC [Compound 202] | 9 | 
CC1(C)CON(Cc2ccc(Cl)cc2Br)C1=O |  | Control effect of B applied alone in a corresponding dose (%) (Euphorbia helioscopia; B 60 g a.i./ha): 25.7%; Control effect of B applied alone in a corresponding dose (%) (Euphorbia helioscopia; B 120 g a.i./ha): 44.6%
COc1c(N)nc(-c2ccc(C(F)(F)F)c(OC)c2F)nc1C(=O)OCCCl [Compound 59] | 9 | 
COc1c(N)nc(-c2ccc(C(F)(F)F)c(OC)c2F)nc1C(=O)OCc1ccn(C)n1 [Compound 193] | 9 | 
O=C(O)c1nc(Cl)ccc1Cl [Clopyralid, clopyralid] |  | Control effect of B applied alone in a corresponding dose (%) (Veronica [1]; B 45 g a.i./ha): 12.4%; Control effect of B applied alone in a corresponding dose (%) (Veronica [1]; B 90 g a.i./ha): 33.3%
COc1c(N)nc(-c2ccc(Br)c(OC)c2F)nc1C(=O)OC(C)C [Compound 204] | 9 | 
COc1c(N)nc(-c2ccc(Br)c(OC)c2F)nc1C(=O)OCC1CCCO1 (stereo not shown) [Compound 218] | 9 | 
COc1c(N)nc(-c2ccc(Br)c(OC)c2F)nc1C(=O)OCCSC [Compound 214] | 9 | 
COc1c(N)nc(-c2ccc(Br)c(OC)c2F)nc1C(=O)OCC(F)F [Compound 205] | 9 | 
CCCOC(=O)c1nc(-c2ccc(C(F)(F)F)c(OC)c2F)nc(N)c1OC [Compound 25] | 9 | 

SMILES | activity level of plant damage (growth control rate), Veronica (Veronica [2]) | further results
COc1c(N)nc(-c2ccc(C(F)(F)F)c(OC)c2F)nc1C(=O)Oc1ccccc1 [Compound 129] | 9 | 
C#CCOC(=O)c1nc(-c2ccc(C(F)(F)F)c(OC)c2F)nc(N)c1OC [Compound 57] | 9 | 
CCSC(=O)c1nc(-c2ccc(C(F)(F)F)c(OC)c2)nc(N)c1OC [Compound 156] | 9 | 
Nc1cc(Cl)nc(C(=O)O)c1Cl [Aminopyralid, aminopyralid] |  | Control effect of B applied alone in a corresponding dose (%) (Veronica [1]; B 30 g a.i./ha): 18.0%; Control effect of B applied alone in a corresponding dose (%) (Veronica [1]; B 60 g a.i./ha): 39.7%
COc1c(N)nc(-c2ccc(C(F)(F)F)c(OC)c2F)nc1C(=O)OCCO [Compound 73] | 9 | 
C=CCOC(=O)c1nc(-c2ccc(C(F)(F)F)c(OC)c2F)nc(N)c1OC [Compound 52] | 9 | 
CCCOCCOC(=O)c1nc(-c2ccc(C(F)(F)F)c(OC)c2F)nc(N)c1OC [Compound 22] | 9 | 
COC(=O)C(C)OC(=O)c1nc(-c2ccc(C(F)(F)F)c(OC)c2F)nc(N)c1OC (stereo not shown) [Compound 82] | 9 | 
COc1c(N)nc(-c2ccc(C(F)(F)F)c(OC)c2F)nc1C(=O)OC(C)C [Compound 26] | 9 | 
COc1c(N)nc(-c2ccc(C(F)(F)F)c(OC)c2F)nc1C(=O)OCCSC [Compound 100] | 9 | 
COc1c(N)nc(-c2ccc(C(F)(F)F)c(OC)c2F)nc1C(=O)OCCCF [Compound 63] | 9 | 
COCCOC(=O)c1nc(-c2ccc(Br)c(OC)c2F)nc(N)c1OC [Compound 212] | 9 | 
COc1c(N)nc(-c2ccc(C(F)(F)F)c(OC)c2F)nc1C(=O)[O-].[K+] [Compound 199] | 9 | 
COCOC(=O)c1nc(-c2ccc(C(F)(F)F)c(OC)c2F)nc(N)c1OC [Compound 72] | 9 | 
COc1c(N)nc(-c2ccc(C(F)(F)F)c(OC)c2F)nc1C(=O)OCCC(F)(F)F [Compound 64] | 9 | 
COc1c(N)nc(-c2ccc(C(F)(F)F)c(OC)c2F)nc1C(=O)[O-].[Na+] [Compound 200] | 9 | 
COc1c(N)nc(-c2ccc(C(F)(F)F)c(OC)c2F)nc1C(=O)OCCF [Compound 58] | 9 | 
